Results on five compounds are retold here after ChEMBL document CHEMBL4270498, “Targeting Eph/ephrin system in cancer therapy” (Eur J Med Chem, 2017).

The target of data set [1] is Ephrin type-A receptor 2 (Homo sapiens, UniProt P29317). In words: Binding affinity to EphA2 (unknown origin).
Data set [2] has as its target T1, Ephrin type-A receptor 2 (Mus musculus, UniProt Q03145). The data set can be described thus: Binding affinity to histidine-tagged mouse EphA2 Fc fusion protein by SPR assay. Background: In SPR one partner is held on a chip, and binding of the other changes the refractive index at the surface.
Data set [3] addresses T1, Ephrin type-A receptor 2. In words: Displacement of biotinylated ephrinA1-Fc from recombinant mouse EphA2 Fc chimera protein by ELISA. A general note: ELISA stands for enzyme-linked immunosorbent assay.
Another data set deals with T2, Ephrin type-B receptor 4 (Homo sapiens, UniProt P54760).
T2 sequence (P54760 whole entry): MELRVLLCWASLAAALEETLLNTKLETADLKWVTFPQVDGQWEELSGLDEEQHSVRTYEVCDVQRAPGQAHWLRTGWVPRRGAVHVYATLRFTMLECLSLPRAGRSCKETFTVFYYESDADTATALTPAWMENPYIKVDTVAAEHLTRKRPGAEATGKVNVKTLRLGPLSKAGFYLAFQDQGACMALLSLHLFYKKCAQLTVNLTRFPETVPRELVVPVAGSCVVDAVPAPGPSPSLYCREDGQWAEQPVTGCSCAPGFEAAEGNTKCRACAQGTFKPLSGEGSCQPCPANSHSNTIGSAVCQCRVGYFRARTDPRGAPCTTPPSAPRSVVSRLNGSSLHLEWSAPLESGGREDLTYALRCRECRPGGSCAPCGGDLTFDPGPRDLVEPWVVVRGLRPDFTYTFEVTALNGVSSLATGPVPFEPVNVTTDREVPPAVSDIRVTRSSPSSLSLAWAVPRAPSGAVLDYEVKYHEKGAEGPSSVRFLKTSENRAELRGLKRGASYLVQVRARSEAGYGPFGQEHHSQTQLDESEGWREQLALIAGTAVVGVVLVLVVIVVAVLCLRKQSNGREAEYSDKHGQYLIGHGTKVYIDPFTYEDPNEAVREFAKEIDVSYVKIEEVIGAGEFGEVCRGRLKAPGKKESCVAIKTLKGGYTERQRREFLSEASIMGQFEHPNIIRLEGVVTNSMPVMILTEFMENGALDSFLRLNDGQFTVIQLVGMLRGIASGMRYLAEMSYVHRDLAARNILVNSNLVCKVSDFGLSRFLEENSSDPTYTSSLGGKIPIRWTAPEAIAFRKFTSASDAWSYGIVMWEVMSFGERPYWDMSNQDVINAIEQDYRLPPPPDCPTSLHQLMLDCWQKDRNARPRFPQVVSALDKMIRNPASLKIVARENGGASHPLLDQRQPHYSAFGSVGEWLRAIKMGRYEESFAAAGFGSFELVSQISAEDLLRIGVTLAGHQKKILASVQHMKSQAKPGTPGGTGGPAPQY
In words: Binding affinity to Fc-tagged EphB4 (unknown origin) assessed as reduction in ephrin-B2 binding by SPR assay.

Data set [4] is described as follows: Half life in mouse at 30 mg/kg, iv. It is filed as ADME, organism-based. The conditions noted are these: in vivo.

T1 sequence (Q03145 whole entry, the tested form may be a part): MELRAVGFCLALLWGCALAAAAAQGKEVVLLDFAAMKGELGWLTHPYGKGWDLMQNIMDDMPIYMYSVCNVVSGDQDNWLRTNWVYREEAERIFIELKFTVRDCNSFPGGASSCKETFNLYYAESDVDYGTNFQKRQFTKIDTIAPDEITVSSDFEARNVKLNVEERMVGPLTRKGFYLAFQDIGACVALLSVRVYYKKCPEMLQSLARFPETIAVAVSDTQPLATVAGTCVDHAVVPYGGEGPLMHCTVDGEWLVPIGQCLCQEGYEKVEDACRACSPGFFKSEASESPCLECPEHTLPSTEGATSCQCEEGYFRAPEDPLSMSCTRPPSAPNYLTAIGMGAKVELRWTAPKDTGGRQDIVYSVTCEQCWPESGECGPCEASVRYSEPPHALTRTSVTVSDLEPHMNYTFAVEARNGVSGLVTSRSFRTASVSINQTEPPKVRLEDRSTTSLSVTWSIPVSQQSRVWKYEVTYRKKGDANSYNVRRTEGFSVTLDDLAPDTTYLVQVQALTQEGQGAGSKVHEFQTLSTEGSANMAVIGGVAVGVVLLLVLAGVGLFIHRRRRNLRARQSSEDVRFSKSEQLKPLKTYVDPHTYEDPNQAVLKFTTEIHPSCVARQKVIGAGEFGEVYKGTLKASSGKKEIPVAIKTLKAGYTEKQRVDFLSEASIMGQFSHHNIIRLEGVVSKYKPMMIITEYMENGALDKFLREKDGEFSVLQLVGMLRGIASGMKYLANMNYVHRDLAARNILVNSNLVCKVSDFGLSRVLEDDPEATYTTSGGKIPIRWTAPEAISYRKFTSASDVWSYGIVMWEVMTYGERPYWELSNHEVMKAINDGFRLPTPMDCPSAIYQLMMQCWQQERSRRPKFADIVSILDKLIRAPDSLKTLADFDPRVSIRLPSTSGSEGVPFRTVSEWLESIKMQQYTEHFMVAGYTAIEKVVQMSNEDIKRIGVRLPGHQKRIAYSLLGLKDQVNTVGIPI
Chain of Ephrin type-A receptor 2 (Homo sapiens, UniProt P29317) (P29317 whole entry, the tested form may be a part): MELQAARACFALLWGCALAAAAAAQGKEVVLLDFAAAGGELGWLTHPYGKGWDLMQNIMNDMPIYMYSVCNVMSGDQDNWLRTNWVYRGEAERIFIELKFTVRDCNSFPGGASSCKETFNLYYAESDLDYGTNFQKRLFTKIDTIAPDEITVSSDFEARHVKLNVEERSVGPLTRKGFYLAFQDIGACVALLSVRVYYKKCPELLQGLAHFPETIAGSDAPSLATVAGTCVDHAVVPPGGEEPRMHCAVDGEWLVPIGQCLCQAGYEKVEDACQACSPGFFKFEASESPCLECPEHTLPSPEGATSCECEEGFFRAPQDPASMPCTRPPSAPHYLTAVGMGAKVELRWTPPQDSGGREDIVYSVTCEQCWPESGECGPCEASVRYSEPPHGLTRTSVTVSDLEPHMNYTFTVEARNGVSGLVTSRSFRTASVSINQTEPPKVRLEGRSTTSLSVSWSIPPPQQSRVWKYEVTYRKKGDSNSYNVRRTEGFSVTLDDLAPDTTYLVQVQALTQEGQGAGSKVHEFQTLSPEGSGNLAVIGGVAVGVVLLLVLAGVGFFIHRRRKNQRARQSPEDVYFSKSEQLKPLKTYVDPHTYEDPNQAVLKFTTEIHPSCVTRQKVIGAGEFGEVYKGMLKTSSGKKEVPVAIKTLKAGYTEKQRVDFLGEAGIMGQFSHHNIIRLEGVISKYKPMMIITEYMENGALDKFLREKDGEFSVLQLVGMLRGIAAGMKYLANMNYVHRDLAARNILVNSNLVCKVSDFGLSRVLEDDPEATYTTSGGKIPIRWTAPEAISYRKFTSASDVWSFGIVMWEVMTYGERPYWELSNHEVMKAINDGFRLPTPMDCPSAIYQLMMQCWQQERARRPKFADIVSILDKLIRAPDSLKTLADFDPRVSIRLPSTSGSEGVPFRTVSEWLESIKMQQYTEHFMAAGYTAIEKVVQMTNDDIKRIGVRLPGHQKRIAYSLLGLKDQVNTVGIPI

Broadly, the Ki is the equilibrium dissociation constant of an inhibitor or competing ligand from its target. Low values mean a stronger hold on the target, high ones a looser hold on the target. In turn, `C[C@H](CCC(=O)N[C@H](CC(=O)O)Cc1c[nH]c2ccccc12)[C@H]1CC[C@H]2[C@@H]3CC[C@@H]4CCCC[C@]4(C)[C@H]3CC[C@]12C` came in with a Ki on Ephrin type-A receptor 2 [1] of over 15000 nM. One may read the Kd as the free concentration of one partner at which half of the binding sites on the other are occupied at equilibrium, for simple one-to-one binding. In turn, `CC(C)C[C@H](NC(=O)[C@H](Cc1c[nH]c2ccccc12)NC(=O)[C@@H](N)CO)C(=O)N[C@@H](C)C(=O)N[C@@H](Cc1ccc(O)cc1)C(=O)N1CCC[C@H]1C(=O)NCC(=O)N[C@@H](C)C(=O)N[C@H](C(=O)N[C@@H](CO)C(=O)N[C@@H](Cc1ccc(O)cc1)C(=O)N[C@@H](CCCN=C(N)N)C(=O)O)C(C)C` came in with a Kd at Ephrin type-A receptor 2 [2] of 700 nM. One may read the IC50 as the point on the concentration scale where inhibition reaches its midpoint. With `C[C@H](CCC(=O)O)[C@H]1CC[C@H]2[C@@H]3CC[C@@H]4C[C@H](O)CC[C@]4(C)[C@H]3CC[C@]12C` [LITHOCHOLIC ACID], at Ephrin type-A receptor 2 [3], the IC50 was 57000 nM. In the case of H-TNYLFSPNGPIARAW-OH, the Kd on Ephrin type-B receptor 4 turned out to be 2 nM. Usually half-life stands for how long it takes for the measured level to halve. In data set [4], `CCCC[C@H](NC(=O)[C@@H]1CCCN1C(=O)[C@@H](NC(=O)[C@H](CO)NC(=O)[C@H](CC(=O)O)NC(=O)[C@@H]1CCCN1C(=O)[C@H](Cc1ccc(O)cc1)NC(=O)[C@H](C)NC(=O)[C@H](CO)NC(=O)COc1ccc(F)c(Cl)c1)C(C)C)C(=O)N[C@@H](CCO)C(=O)N[C@@H](CO)C(=O)N[C@@H](CCCCNC(=O)CCCc1cn(CCCCCOC(=O)COCC(=O)O[C@@H](C(=O)O[C@H]2C[C@@]3(O)[C@@H](OC(=O)c4ccccc4)[C@@H]4[C@]5(OC(C)=O)CO[C@@H]5C[C@H](O)[C@@]4(C)C(=O)[C@H](OC(C)=O)C(=C2C)C3(C)C)[C@@H](NC(=O)c2ccccc2)c2ccccc2)nn1)C(=O)O` came in with a half-life of over 2 h.
